# Assay: Antagonist activity at CXCR3 assessed as inhibition of ITAC-mediated cell migration in presence of 100% human serum
row,Structure (SMILES),IC50
1,CCS(=O)(=O)CCN(C(=O)Cc1ccc(C(F)(F)F)c(F)c1)[C@H](C)c1nc2ncccc2c(=O)n1-c1ccc(F)cc1,292 nM
2,C[C@H](c1nc2ccccn2c(=O)c1-c1ccc(C#N)cc1)N(CC1CCS(=O)(=O)CC1)C(=O)Cc1ccc(OC(F)(F)F)cc1,60 nM
3,C[C@H](c1nc2ncccc2c(=O)n1-c1ccc(F)cc1)N(CC1CCS(=O)(=O)CC1)C(=O)Cc1ccc(C(F)(F)F)c(F)c1,90 nM
4,C[C@H](c1nc2ncccc2c(=O)n1-c1ccc(F)cc1)N(CC1CCS(=O)(=O)CC1)C(=O)Cc1ccc(F)c(C(F)(F)F)c1,72 nM
5,CCS(=O)(=O)CCN(C(=O)Cc1ccc(F)c(C(F)(F)F)c1)[C@H](C)c1nc2ncccc2c(=O)n1-c1ccc(F)cc1,254 nM
6,C[C@H](c1nc2ncccc2c(=O)n1-c1ccc(Cl)cc1)N(CC1CCS(=O)(=O)CC1)C(=O)Cc1ccc(C(F)(F)F)c(F)c1,55 nM
7,CCS(=O)(=O)CCN(C(=O)Cc1ccc(C(F)(F)F)c(F)c1)[C@H](C)c1nc2ncccc2c(=O)n1-c1ccc(Cl)cc1,107 nM
8,CCS(=O)(=O)CCN(C(=O)Cc1ccc(F)c(C(F)(F)F)c1)[C@H](C)c1nc2ncccc2c(=O)n1-c1ccc(Cl)cc1,102 nM

# Stronger by IC50, values ahead:
row,IC50,Structure (SMILES)
1,39 nM,C[C@H](c1nc2ncccc2c(=O)n1-c1ccc(C#N)cc1)N(CC1CCS(=O)(=O)CC1)C(=O)Cc1ccc(F)c(C(F)(F)F)c1
2,37 nM,C[C@H](c1nc2ncccc2c(=O)n1-c1ccc(C#N)cc1)N(CC1CCS(=O)(=O)CC1)C(=O)Cc1ccc(C(F)(F)F)c(F)c1
3,45 nM,C[C@H](c1nc2ncccc2c(=O)n1-c1ccc(Cl)cc1)N(CC1CCS(=O)(=O)CC1)C(=O)Cc1ccc(F)c(C(F)(F)F)c1
4,47 nM,"CCS(=O)(=O)CCN(C(=O)Cc1ccc(C(F)(F)F)c(F)c1)[C@H](C)c1nc2ncccc2c(=O)n1-c1ccc(C#N)cc1 [(R)-N-(1-(3-(4-cyanophenyl)-4-oxo-3,4-dihydropyrido[2,3-d]pyrimidin-2-yl)ethyl)-N-(2-(ethylsulfonyl)ethyl)-2-(3-fluoro-4-(trifluoromethyl)phenyl)acetamide]"

# From BindingDB's records for doi:10.1016/j.bmcl.2011.10.120 (Amgen, 2011)
